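A five-concentration, 48-hour dose response in 96-well plates underlies each endpoint, interpolated linearly between surrounding concentrations. The concentration for 50% growth inhibition is given as GI50. The concentration for full growth arrest is given as TGI.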
Assays:
Test in all cases: growth of human tumour cells (NCI), 48 h
U251 CNS = test system: U251 CNS
NCI-H226 lung = test system: NCI-H226 lung
SK-MEL-2 melanoma = test system: SK-MEL-2 melanoma
COLO 205 colon = test system: COLO 205 colon
OVCAR-5 ovarian = test system: OVCAR-5 ovarian
SF-539 CNS = test system: SF-539 CNS
SF-268 CNS = test system: SF-268 CNS
SR leukemia = test system: SR leukemia
HOP-92 NSCLC = test system: HOP-92 NSCLC
HS 578T breast = test system: HS 578T breast
SN12C renal = test system: SN12C renal
MDA-MB-435 = test system: MDA-MB-435
A549 NSCLC = test system: A549 NSCLC
BT-549 breast = test system: BT-549 breast
CCRF-CEM leukemia = test system: CCRF-CEM leukemia
A498 renal = test system: A498 renal
NCI-H23 lung = test system: NCI-H23 lung
ACHN renal = test system: ACHN renal
OVCAR-4 ovarian = test system: OVCAR-4 ovarian
UO-31 renal = test system: UO-31 renal
786-0 renal = test system: 786-0 renal
KM12 colon = test system: KM12 colon
M14 melanoma = test system: M14 melanoma
UACC-62 melanoma = test system: UACC-62 melanoma
MALME-3M melanoma = test system: MALME-3M melanoma
HL-60(TB) leukemia = test system: HL-60(TB) leukemia
SNB-19 CNS = test system: SNB-19 CNS
SK-MEL-28 melanoma = test system: SK-MEL-28 melanoma
UACC-257 melanoma = test system: UACC-257 melanoma
IGROV1 ovarian = test system: IGROV1 ovarian
NCI-H522 lung = test system: NCI-H522 lung
NCI-H460 lung = test system: NCI-H460 lung
TK-10 renal = test system: TK-10 renal
HCT-15 colon = test system: HCT-15 colon
DU-145 prostate = test system: DU-145 prostate
SF-295 CNS = test system: SF-295 CNS
K-562 leukemia = test system: K-562 leukemia
NCI/ADR-RES ovarian = test system: NCI/ADR-RES ovarian
HCC-2998 colon = test system: HCC-2998 colon
LOX IMVI melanoma = test system: LOX IMVI melanoma
PC-3 prostate = test system: PC-3 prostate
RPMI-8226 leukemia = test system: RPMI-8226 leukemia
HCT-116 colon = test system: HCT-116 colon
HOP-62 NSCLC = test system: HOP-62 NSCLC
HT29 colon = test system: HT29 colon
T-47D breast = test system: T-47D breast
SK-OV-3 ovarian = test system: SK-OV-3 ovarian
OVCAR-3 ovarian = test system: OVCAR-3 ovarian
EKVX NSCLC = test system: EKVX NSCLC
MCF7 breast = test system: MCF7 breast
OVCAR-8 ovarian = test system: OVCAR-8 ovarian
MOLT-4 leukemia = test system: MOLT-4 leukemia
MDA-MB-231 breast = test system: MDA-MB-231 breast
SK-MEL-5 melanoma = test system: SK-MEL-5 melanoma
CAKI-1 renal = test system: CAKI-1 renal
RXF 393 renal = test system: RXF 393 renal
SW-620 colon = test system: SW-620 colon
SNB-75 CNS = test system: SNB-75 CNS

O=C(O)/C(=C/C(=O)c1ccc(Cl)cc1)NNc1ccc([N+](=O)[O-])cc1[N+](=O)[O-]
TGI (U251 CNS): > 100 µM
TGI (NCI-H226 lung): 69.3 µM
TGI (SK-MEL-2 melanoma): > 100 µM
TGI (COLO 205 colon): > 100 µM
TGI (OVCAR-5 ovarian): > 100 µM
TGI (SF-539 CNS): > 100 µM
TGI (SF-268 CNS): > 100 µM
TGI (SR leukemia): > 100 µM
TGI (HOP-92 NSCLC): 57.1 µM
TGI (HS 578T breast): 94.4 µM
TGI (SN12C renal): > 100 µM
TGI (MDA-MB-435): > 100 µM
TGI (A549 NSCLC): > 100 µM
TGI (BT-549 breast): 92.5 µM
TGI (CCRF-CEM leukemia): 70 µM
TGI (A498 renal): > 100 µM
TGI (NCI-H23 lung): > 100 µM
TGI (ACHN renal): > 100 µM
TGI (OVCAR-4 ovarian): 42 µM
TGI (UO-31 renal): 44.2 µM
TGI (786-0 renal): 53.4 µM
TGI (KM12 colon): > 100 µM
TGI (M14 melanoma): > 100 µM
TGI (UACC-62 melanoma): > 100 µM
TGI (MALME-3M melanoma): > 100 µM
TGI (HL-60(TB) leukemia): > 100 µM
TGI (SNB-19 CNS): > 100 µM
TGI (SK-MEL-28 melanoma): > 100 µM
TGI (UACC-257 melanoma): > 100 µM
TGI (IGROV1 ovarian): > 100 µM
TGI (NCI-H522 lung): 46 µM
TGI (NCI-H460 lung): > 100 µM
TGI (TK-10 renal): > 100 µM
TGI (HCT-15 colon): > 100 µM
TGI (DU-145 prostate): > 100 µM
TGI (SF-295 CNS): > 100 µM
TGI (K-562 leukemia): > 100 µM
TGI (NCI/ADR-RES ovarian): > 100 µM
TGI (HCC-2998 colon): > 100 µM
TGI (LOX IMVI melanoma): > 100 µM
TGI (PC-3 prostate): > 100 µM
TGI (RPMI-8226 leukemia): 96.9 µM
TGI (HCT-116 colon): 36.3 µM
TGI (HOP-62 NSCLC): 70 µM
TGI (HT29 colon): > 100 µM
TGI (T-47D breast): > 100 µM
TGI (SK-OV-3 ovarian): > 100 µM
TGI (OVCAR-3 ovarian): 94.8 µM
TGI (EKVX NSCLC): > 100 µM
TGI (MCF7 breast): > 100 µM
TGI (OVCAR-8 ovarian): > 100 µM
TGI (MOLT-4 leukemia): > 100 µM
TGI (MDA-MB-231 breast): > 100 µM
TGI (SK-MEL-5 melanoma): > 100 µM
TGI (CAKI-1 renal): 46 µM

Nc1nc(/C=C\c2ccc([N+](=O)[O-])cc2)nc(N2CCN(c3ccccc3)CC2)n1
GI50 (U251 CNS): 38.2 µM
TGI (U251 CNS): > 100 µM
GI50 (NCI-H226 lung): 40.8 µM
TGI (NCI-H226 lung): > 100 µM
GI50 (SK-MEL-2 melanoma): 30.2 µM
TGI (SK-MEL-2 melanoma): 81.3 µM
GI50 (COLO 205 colon): 19 µM
TGI (COLO 205 colon): 55.2 µM
GI50 (OVCAR-5 ovarian): 89 µM
TGI (OVCAR-5 ovarian): > 100 µM
GI50 (SF-539 CNS): > 100 µM
TGI (SF-539 CNS): > 100 µM
GI50 (SF-268 CNS): 96.7 µM
TGI (SF-268 CNS): > 100 µM
GI50 (SR leukemia): 21.3 µM
TGI (SR leukemia): 60.2 µM
GI50 (HOP-92 NSCLC): 44.2 µM
TGI (HOP-92 NSCLC): > 100 µM
GI50 (HS 578T breast): 80 µM
TGI (HS 578T breast): > 100 µM
GI50 (SN12C renal): 42.3 µM
TGI (SN12C renal): > 100 µM
GI50 (MDA-MB-435): 20.5 µM
TGI (MDA-MB-435): 41.7 µM
GI50 (A549 NSCLC): 38.2 µM
TGI (A549 NSCLC): > 100 µM
GI50 (BT-549 breast): 35.7 µM
TGI (BT-549 breast): > 100 µM
GI50 (CCRF-CEM leukemia): 23.2 µM
TGI (CCRF-CEM leukemia): 74.6 µM
GI50 (A498 renal): 37.6 µM
TGI (A498 renal): > 100 µM
GI50 (ACHN renal): 30.2 µM
TGI (ACHN renal): > 100 µM
GI50 (OVCAR-4 ovarian): 53.3 µM
TGI (OVCAR-4 ovarian): > 100 µM
GI50 (UO-31 renal): 27.7 µM
TGI (UO-31 renal): > 100 µM
GI50 (786-0 renal): 45.8 µM
TGI (786-0 renal): > 100 µM
GI50 (KM12 colon): 20.7 µM
TGI (KM12 colon): 53.8 µM
GI50 (M14 melanoma): 25.6 µM
TGI (M14 melanoma): 62.9 µM
GI50 (UACC-62 melanoma): 18.9 µM
TGI (UACC-62 melanoma): 43.6 µM
GI50 (HL-60(TB) leukemia): 20 µM
TGI (HL-60(TB) leukemia): 58.9 µM
GI50 (SNB-19 CNS): > 100 µM
TGI (SNB-19 CNS): > 100 µM
GI50 (SK-MEL-28 melanoma): 41.7 µM
TGI (SK-MEL-28 melanoma): > 100 µM
GI50 (UACC-257 melanoma): 25.1 µM
TGI (UACC-257 melanoma): 61.5 µM
GI50 (RXF 393 renal): 29.3 µM
TGI (RXF 393 renal): 93 µM
GI50 (IGROV1 ovarian): 20.1 µM
TGI (IGROV1 ovarian): 54.1 µM
GI50 (NCI-H522 lung): 18.4 µM
TGI (NCI-H522 lung): 50.5 µM
GI50 (NCI-H460 lung): 35.5 µM
TGI (NCI-H460 lung): > 100 µM
GI50 (TK-10 renal): 20.5 µM
TGI (TK-10 renal): 65 µM
GI50 (HCT-15 colon): 25.3 µM
TGI (HCT-15 colon): > 100 µM
GI50 (DU-145 prostate): 40 µM
TGI (DU-145 prostate): > 100 µM
GI50 (SW-620 colon): 40.4 µM
TGI (SW-620 colon): > 100 µM
GI50 (SF-295 CNS): 38.4 µM
TGI (SF-295 CNS): > 100 µM
GI50 (K-562 leukemia): 26.5 µM
TGI (K-562 leukemia): 79.6 µM
GI50 (NCI/ADR-RES ovarian): 25.3 µM
TGI (NCI/ADR-RES ovarian): 77.3 µM
GI50 (HCC-2998 colon): 41 µM
TGI (HCC-2998 colon): 96.2 µM
GI50 (LOX IMVI melanoma): 30.2 µM
TGI (LOX IMVI melanoma): > 100 µM
GI50 (PC-3 prostate): 23.7 µM
TGI (PC-3 prostate): 67.6 µM
GI50 (SNB-75 CNS): 39.8 µM
TGI (SNB-75 CNS): > 100 µM
GI50 (RPMI-8226 leukemia): 22.9 µM
TGI (RPMI-8226 leukemia): > 100 µM
GI50 (HCT-116 colon): 24.8 µM
TGI (HCT-116 colon): > 100 µM
GI50 (HOP-62 NSCLC): 36.2 µM
TGI (HOP-62 NSCLC): > 100 µM
GI50 (HT29 colon): 35.3 µM
TGI (HT29 colon): > 100 µM
GI50 (T-47D breast): 23.1 µM
TGI (T-47D breast): 61 µM
GI50 (SK-OV-3 ovarian): 28.7 µM
TGI (SK-OV-3 ovarian): 77 µM
GI50 (OVCAR-3 ovarian): 26.9 µM
TGI (OVCAR-3 ovarian): 69.6 µM
GI50 (EKVX NSCLC): 43.4 µM
TGI (EKVX NSCLC): > 100 µM
GI50 (MCF7 breast): 34.2 µM
TGI (MCF7 breast): > 100 µM
GI50 (OVCAR-8 ovarian): 29.7 µM
TGI (OVCAR-8 ovarian): > 100 µM
GI50 (MOLT-4 leukemia): 27.4 µM
TGI (MOLT-4 leukemia): > 100 µM
GI50 (MDA-MB-231 breast): 20.8 µM
TGI (MDA-MB-231 breast): 58.1 µM
GI50 (SK-MEL-5 melanoma): 18.2 µM
TGI (SK-MEL-5 melanoma): 33.1 µM
GI50 (CAKI-1 renal): 22.5 µM
TGI (CAKI-1 renal): 45.8 µM

From PubChem BioAssay (NCI)
